{"source": "patent US6127136A", "about": "“Detection of dioxin-like compounds by detection of transformed Ah receptor/ARNT complex” (Paracelsian, Inc., priority 1996, dated 2000)", "molecular_target": "transformed Ah receptor/ARNT complex (Cavia porcellus, UniProt Q6J287)", "sequence (Q6J287 1-846)": "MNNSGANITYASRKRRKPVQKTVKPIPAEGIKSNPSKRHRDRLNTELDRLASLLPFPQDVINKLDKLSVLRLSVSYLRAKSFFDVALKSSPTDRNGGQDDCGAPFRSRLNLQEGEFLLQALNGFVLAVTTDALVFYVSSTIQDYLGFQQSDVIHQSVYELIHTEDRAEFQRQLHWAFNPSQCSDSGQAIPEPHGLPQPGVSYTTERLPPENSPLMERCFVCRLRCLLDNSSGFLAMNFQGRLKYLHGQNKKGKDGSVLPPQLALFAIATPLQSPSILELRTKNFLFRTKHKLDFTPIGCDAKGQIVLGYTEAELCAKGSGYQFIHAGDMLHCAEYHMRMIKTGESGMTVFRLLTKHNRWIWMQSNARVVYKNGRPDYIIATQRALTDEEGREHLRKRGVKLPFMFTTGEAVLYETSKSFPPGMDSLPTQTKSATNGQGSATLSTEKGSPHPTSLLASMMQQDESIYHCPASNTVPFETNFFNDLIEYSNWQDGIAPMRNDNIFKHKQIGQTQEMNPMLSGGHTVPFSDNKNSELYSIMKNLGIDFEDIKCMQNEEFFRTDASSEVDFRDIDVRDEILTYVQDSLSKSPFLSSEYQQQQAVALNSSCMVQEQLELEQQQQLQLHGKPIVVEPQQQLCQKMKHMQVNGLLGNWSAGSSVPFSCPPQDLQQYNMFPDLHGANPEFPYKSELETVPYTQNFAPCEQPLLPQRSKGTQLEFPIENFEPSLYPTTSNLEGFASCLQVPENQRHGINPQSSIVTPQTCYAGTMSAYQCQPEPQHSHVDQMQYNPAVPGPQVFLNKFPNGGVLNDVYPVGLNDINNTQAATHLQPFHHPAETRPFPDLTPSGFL", "sequence (Q0WXX3 1-790 partner)": "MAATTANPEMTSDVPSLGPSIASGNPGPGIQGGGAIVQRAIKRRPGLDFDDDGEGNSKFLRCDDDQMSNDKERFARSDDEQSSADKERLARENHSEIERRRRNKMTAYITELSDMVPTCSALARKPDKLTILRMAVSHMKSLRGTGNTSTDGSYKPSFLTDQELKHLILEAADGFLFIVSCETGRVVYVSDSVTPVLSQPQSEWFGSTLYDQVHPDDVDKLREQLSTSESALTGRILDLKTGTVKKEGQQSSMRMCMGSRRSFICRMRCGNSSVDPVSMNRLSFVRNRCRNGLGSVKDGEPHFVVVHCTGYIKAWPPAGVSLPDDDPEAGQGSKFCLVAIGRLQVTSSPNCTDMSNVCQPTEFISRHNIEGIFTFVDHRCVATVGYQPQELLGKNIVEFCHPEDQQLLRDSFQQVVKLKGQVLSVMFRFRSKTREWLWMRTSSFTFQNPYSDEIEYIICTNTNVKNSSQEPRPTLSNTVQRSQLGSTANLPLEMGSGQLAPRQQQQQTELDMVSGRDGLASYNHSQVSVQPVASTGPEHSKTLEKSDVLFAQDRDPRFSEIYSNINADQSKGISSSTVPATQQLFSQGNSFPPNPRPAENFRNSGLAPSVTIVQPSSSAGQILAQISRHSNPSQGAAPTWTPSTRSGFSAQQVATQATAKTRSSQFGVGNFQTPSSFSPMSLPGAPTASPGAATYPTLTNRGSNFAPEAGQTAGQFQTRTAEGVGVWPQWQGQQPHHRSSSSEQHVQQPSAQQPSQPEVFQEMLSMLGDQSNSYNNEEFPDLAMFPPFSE", "test": "Ah-ELISA dose response using an amplified detection system", "format": "biochemical, guinea pig (hepatic cytosol)", "set-up": "from tissue; host or cells: hepatic cytosol of male Hartley guinea pigs (animals from Cornell Research Animal Resources)", "settings": "for Average Optical Density: 490 nm, amplified, 28 minutes", "method": "The reagents and ELISA plate were prepared as described in Example 9 with an amplified detection system. The TCDD concentration was varied tested at 0, 0.016, 0.031, 0.063, 0.125, 0.25, 0.5, 1.0, 2.0, and 4.0 nM.\nThe amplified detection system used was the alkaline phosphatase/NADP system published by Johannson et al. (J IMM Meth 87: 7-11, 1986). This system is sold as a kit under the trademark Ampak™ by DAKO.\n2x enzyme stock was made by dissolving 8 mg alcohol dehydrogenase, 1.4 mg Diaphorase, 133 mg bovine serum albumin in 40 ml AMP buffer (2.3 g 85% HPLC grade phosphoric acid in a total volume of 960 ml water, pH adjusted to 7.2 with 6N NaOH, and 40 ml of ethanol was added to make 1 L). 2x INT stock was made by dissolving 50 mg INT Violet dye in 50 mL AMP buffer.\nAfter washing the plates, 100 μl of NADP stock (0.837 mg in 10 ml of AP buffer (diethanolamine 50 mM, 1 mM MgCl2, 0.1 mM ZnCl2, 15 mM NaN3, pH 9.5)) was added and allowed to incubate at room temperature for 30 minutes. Sensitivity can be increased by increasing amount of NADP or time of incubation. The 2x enzyme stock and 2x INT stock were mixed and 200 μl of the mixture was added per well. The OD was read at 490 nm (usually read at 1 minute intervals for up to 30 minutes). The results are shown below at 28 minutes.", "data": [{"smiles": "Clc1cc2c(cc1Cl)Oc1cc(Cl)c(Cl)cc1O2", "note": "[TCDD, 2,3,7,8-tetrachlorodibenzo-p-dioxin]", "values": [{"measurement": "Average Optical Density", "setting": "0.016 nM TCDD", "value": 0.203}, {"measurement": "Average Optical Density", "setting": "0.031 nM TCDD", "value": 0.228}, {"measurement": "Average Optical Density", "setting": "0.063 nM TCDD", "value": 0.293}, {"measurement": "Average Optical Density", "setting": "0.125 nM TCDD", "value": 0.414}, {"measurement": "Average Optical Density", "setting": "0.25 nM TCDD", "value": 0.675}, {"measurement": "Average Optical Density", "setting": "0.5 nM TCDD", "value": 1.036}, {"measurement": "Average Optical Density", "setting": "1 nM TCDD", "value": 1.421}, {"measurement": "Average Optical Density", "setting": "2 nM TCDD", "value": 1.803}, {"measurement": "Average Optical Density", "setting": "4 nM TCDD", "value": 1.844}, {"measurement": "EC50", "setting": "amplified detection, FIG. 7", "value": "~0.248", "unit": "nM"}]}]}
